Blank lines part the entries; values can stand above or below the compound they belong to.
How the values were obtained:
[1] = tested on: U138-MG human glioma cell; assay: Cell proliferation analysis (MTT); assay type: cell-based; details: MTT; for activity at 10 µM / inhibition at 10 µM: Homo sapiens, 48 h, two days
U87-MG human glioma cell = assay: Cell proliferation analysis (MTT); assay type: cell-based; details: MTT; for activity at 10 µM / inhibition at 10 µM: Homo sapiens, U-87 MG, 48 h, two days
[2] = In vivo GBM rat model: haematology
Experimental: (§1) The parameters that were analysed can be seen in Table 11.

[3] = In vivo GBM rat model: plasma chemistry; details: GBM rats, 30 mg/kg oral, 5 days, plasma at necropsy
Experimental: as §1

[4] = Peripheral blood micronucleus assay; assay type: in vivo, Rat
Experimental: Blood smears were made on clean microscope slides, allowed to air-dry, treated with methanol for fixation, and then stained with Giemsa (10% in 0.1 mM of sodium phosphate buffer, pH 6.8) for 10 min. After washing with PBS, the slides were examined under a light microscope. The frequencies of micronuclei (MN) were calculated by evaluating 1000 cells per animal.

[5] = In vivo GBM rat model: body weight; details: treated GBM rats compared to the GBM rats, 30 mg/kg oral, 5 days
Experimental: (§2) An in Vivo study was performed to assess the therapeutic potential of TR-G002, TR-G045, TR-G053, TR-G066, TR-G071 and TR-G091 in the GBM xenograft rat model when administered orally by gavage for five consecutive days. 152 female rats of the Sprague Dawley strain were allocated to the study. Six groups of sixteen females were given dose of 30 mg/kg of the respective target compounds. […] The study design can be seen in Fig. 11 and Table 10.
Individual body weights were manually calculated. Group mean body weights; group mean body weight changes and organ weights were also manually calculated without statistical analysis. To determine the density of positive staining from immunohistochemical and immunofluorescence staining images, five randomly selected areas were evaluated using ZEISS Zen Imaging Software. Data were statistically defined as mean and standard deviation (mean ± SD) for the percentage of the area. One-way ANOVA followed by the Tukey test was performed to compare immunoreactive cells and immune-positive stained areas with healthy controls. GraphPad Prism software was used for analysis.

[6] = PAMPA permeability assay, gastrointestinal mimicking membrane; details: 500 µM, 18 hours, 37 °C
Experimental: Permeability assay and analyses were performed according to the manufacturer's instructions. […] After the loading of lipid solutions into the pores, all drug solutions and the permeability controls were put onto the lipid membrane in donor wells. The permeability assay was performed for 18 hours at 37 °C incubator. All samples were collected from acceptor wells after the incubation period was finished and the absorbance values were measured with equilibrium standards for normalization.

GBM xenograft rat model = assay: In vivo GBM rat model: MRI analysis of tumor volumes; details: GBM rats, 30 mg/kg oral, 5 days, MRI 14th vs 28th day
Experimental: as §2
Female Sprague Dawley rats (age: 6-8 weeks; weight: 255-310 g; ATADEM, Erzurum, Turkey) were utilized in the study. Rats underwent anaesthesia with 5% isoflurane, maintained at 2% isoflurane (1 L/min oxygen), and were positioned in a stereotactic frame for cell implantation (Stoelting Co., IL). […] A burr hole was drilled 1-mm anterior and 3-mm lateral to the right bregma. A microsyringe (Hamilton 1700 series) containing 5×10^4 U87-MG cells suspended in 5 µL of medium at 37 °C was advanced to a depth of 4 mm into the brain. The cells were injected at a rate of 3 µL/ min. Bone wax was used to fill the burr hole to prevent cell suspension reflux. The incision was sutured, and 1 mL of Meloxicam (5 mg/mL; Metacam, Boehringer Ingelheim Vetmedica, Ingelheim, Germany) was administered via a subcutaneous injection.
Fourteen days after inoculation, tumor development in rats was visualized and confirmed through magnetic resonance imaging (MRI). Rats confirmed to have developed tumors were then distributed into six different groups for treatment. […] 9 days after the final treatment dose, the rats underwent another MRI scan and blood and brain samples were taken under anaesthesia.
The anaesthetic was administered via an intraperitoneal route on animals fixed in the supine position with parallel hind limbs. MRI was performed using a 3 Tesla clinical scanner (Magnetom Skyra; Siemens Healthineers, Erlangen, Germany). Rats were placed in the prone position. T2-SPACE (sampling perfection with application-optimized contrast using different flip angle Evolution) sequence was obtained to view the brain in coronal and transverse planes. (TR: 6000 ms, TE: 100 ms, voxel size: 0.5 × 0.5 × 1 mm, 34 slices, slice thickness: 2 mm, slice spacing: 0.6 mm). The volume measurements of brain tumors were performed manually. One radiologist calculated the tumour volume - manually measuring tumour length (L), width (W), and height (H) - and then calculated the tumour volume using the formula 0.5236 × L × W × H (Stuppner S et al., 2020).

[7] = GBM rats, 30 mg/kg oral, 5 days, blood at necropsy

PLT levels ([2]; compared to GBM rats): no significant changes
WBC level ([2]; compared to the GBM rats): did not cause any significant changes
Structure (SMILES): Cn1nnc2c(C(N)=O)ncn2c1=O [TMZ, Temozolomide, reference compound]
Inhibition (%) ([1]; reference drugs): 22%
Proliferation (%) ([1]; reference drugs): 78%
Inhibition (%) (U87-MG human glioma cell; reference drugs): 20%
Proliferation (%) (U87-MG human glioma cell; reference drugs): 80%
HCT [2, 7]: 48.13%
HGB [2, 7]: 15.13 g/dL
MCH [2, 7]: 18.10 pg
MCHC [2, 7]: 31.47 g/dL
MCV [2, 7]: 57.55 fL
PLT [2, 7]: 829.67 10^9 /L
RBC [2, 7]: 8.36 10^12/L
WBC [2, 7]: 4.92 10^9/L
ALP [3]: 128.7 IU/L
ALT [3]: 42.4 IU/L
AST [3]: 114.63 IU/L
GLU [3]: 311 mg/dL
LDH [3]: 499.85 IU/L
LDL C [3]: 5.12 mmol/L
TG [3]: 111 mg/dL
MN frequency ([4]; GBM rats, 30 mg/kg oral, 5 days, 1000 cells per animal evaluated): 14.32 ± 3.10
MN frequency (comparison) ([4]; treated GBM rats): highest observed MN frequency
body weight [5]: No significant change in body weight

permeability through the gastrointestinal mimicking membrane [6]: highly permeable
Structure (SMILES): C#CCOc1ccc2c(c1)CCC(=O)N2 [TR-G006, 6-(prop-2-yn-1-yloxy)-3,4-dihydroquinolin-2(1H)-one]
activity at 10 µM [1]: 86%
inhibition at 10 µM [1]: 14%
activity at 10 µM (U87-MG human glioma cell): 86%
inhibition at 10 µM (U87-MG human glioma cell): 14%

permeability through the gastrointestinal mimicking membrane [6]: highly permeable
Structure (SMILES): C=CCOc1ccc2c(c1)CCC(=O)N2 [TR-G014, 6-(allyloxy)-3,4-dihydroquinolin-2(1H)-one]
activity at 10 µM [1]: 51%
inhibition at 10 µM [1]: 49%
activity at 10 µM (U87-MG human glioma cell): 82%
inhibition at 10 µM (U87-MG human glioma cell): 18%

permeability through the gastrointestinal mimicking membrane [6]: highly permeable
Structure (SMILES): O=C(COc1ccc2c(c1)CCC(=O)N2)NN=Cc1cccs1 [TR-G024, 2-((2-oxo-1,2,3,4-tetrahydroquinolin-6-yl)oxy)-N'-(thiophen-2-ylmethylene)acetohydrazide]
activity at 10 µM [1]: 70%
inhibition at 10 µM [1]: 30%
activity at 10 µM (U87-MG human glioma cell): 80%
inhibition at 10 µM (U87-MG human glioma cell): 20%

Structure (SMILES): O=C1CCc2cc(OS(=O)(=O)c3ccc([N+](=O)[O-])cc3)ccc2N1 [TR-G046, 2-oxo-1,2,3,4-tetrahydroquinolin-6-yl 4-nitrobenzenesulfonate]
activity at 10 µM [1]: 76%
inhibition at 10 µM [1]: 24%
activity at 10 µM (U87-MG human glioma cell): 60%
inhibition at 10 µM (U87-MG human glioma cell): 40%
tumor size (GBM xenograft rat model): reduced the tumor size

Structure (SMILES): CN(C(=O)Oc1ccc2c(c1)CCC(=O)N2)c1ccccc1 [TR-G072, 2-oxo-1,2,3,4-tetrahydroquinolin-6-yl methyl(phenyl)carbamate]
activity at 10 µM [1]: 85%
inhibition at 10 µM [1]: 15%
activity at 10 µM (U87-MG human glioma cell): 85%
inhibition at 10 µM (U87-MG human glioma cell): 15%
permeability through the gastrointestinal mimicking membrane [6]: highly permeable

Structure (SMILES): Cc1ccc(F)cc1NC(=O)Oc1ccc2c(c1)CCC(=O)N2 [TR-G097, 2-oxo-1,2,3,4-tetrahydroquinolin-6-yl (5-fluoro-2-methylphenyl)carbamate]
activity at 10 µM [1]: 73%
inhibition at 10 µM [1]: 27%
activity at 10 µM (U87-MG human glioma cell): 79%
inhibition at 10 µM (U87-MG human glioma cell): 21%
permeability through the gastrointestinal mimicking membrane [6]: highly permeable

permeability through the gastrointestinal mimicking membrane [6]: highly permeable
Structure (SMILES): O=C(COc1ccc2c(c1)CCC(=O)N2)N/N=C/c1ccc(F)cc1 [TR-G128, (E)-N'-(4-fluorobenzylidene)-2-((2-oxo-1,2,3,4-tetrahydroquinolin-6-yl)oxy)acetohydrazide]
activity at 10 µM [1]: 68%
inhibition at 10 µM [1]: 32%
activity at 10 µM (U87-MG human glioma cell): 68%
inhibition at 10 µM (U87-MG human glioma cell): 32%

Reference: patent publication EP4644375A1, “SUBSTITUTED HYDROQUINOLINES FOR THE TREATMENT OF GLIOBLASTOMA MULTIFORME” (Molius Saglik Teknolojileri Anonim Sirketi, priority 2024, dated 2025)
